Values quoted from earlier work in PMC7395068, “The evolution of strategies to minimise the risk of human drug-induced liver injury (DILI) in drug discovery and development” (Archives of Toxicology, 2020).

Experiments:
[1] = system: rBsep; parameters: method as in Dawson 2012; conditions: ref Dawson 2012, cited from earlier work
[2] = assignment in Dawson 2012; ref Dawson 2012; cited from earlier work

CO[C@H]1/C=C/O[C@@]2(C)Oc3c(C)c(O)c4c(O)c(cc(O)c4c3C2=O)NC(=O)/C(C)=C\C=C\[C@H](C)[C@H](O)[C@@H](C)[C@@H](O)[C@@H](C)[C@H](OC(C)=O)[C@@H]1C [rifamycin SV]
+VE: Inhibition of rBsep cutoff<1& cmax u>.2 ([1]; cutoff<1& cmax u>.2) | Inhibition of rBsep cutoff<3 ([1]; cutoff<3) | In vivo DILI [2]
